# US8415486B2, “IAP inhibitors” (TetraLogic Pharmaceuticals Corp., priority 2009, dated 2013)
# pKd: −log10 of the molar value.
# Assays:
# cIAP-1 BIR-3 = target: T1, cIAP-1 BIR-3 (Homo sapiens, UniProt Q13490); assay: Fluorescence polarization binding to cIAP-1 BIR-3 with labeled peptide AbuRPF-K(5-Fam)-NH2; conditions: 40 nM BIR3, 5 nM labeled peptide, reported as ranges, read-out: KD (c-IAP-1 BIR3)
# T1 construct: 40 nM of the respective IAP BIR3
# Method: (§1) The binding affinities of the compounds are reported as a KD value (μM). Briefly, various concentrations of test peptides were mixed with 5 nM of the fluorescently labeled peptide (i.e., a mutated N-terminal Smac peptide—AbuRPF-K(5-Fam)-NH2) and 40 nM of the respective IAP BIR3 for 15 min at RT in […] of 0.1M Potassium Phosphate buffer, pH 7.5 containing 100 mg/ml bovine g-globulin. Following incubation, the polarization values (mP) were measured on a Victor2V (available from PerkinElmer Life Sciences) using a 485 nm excitation filter and a 520 nm emission filter. The reported binding affinities (KD values) are supplied as ranges (A=<0.1 μM, B=0.1 μM to 1 μM, C=>1 μM to 10 μM, D=>10 μM).
# [1] = test system: ovarian cancer cell line, SK-OV-3; assay: SK-OV-3 cell growth inhibition (MTT, 72 hrs); format: cell-based; conditions: Homo sapiens, concentration giving 50% cell survival, reported as ranges
# Method: Compounds of the invention also were tested for their ability to inhibit the growth of an ovarian cancer cell line, SK-OV-3. A known assay previously used for measuring cell growth (as described in Hansen, M. B., Nielsen, S. E., and Berg, K. (1989) J. Immunol. Methods 119, 203-210 and incorporated herein by reference in its entirety) was used. Briefly, SK-OV-3 cells are seeded in 96-well plates in McCoy's medium containing 10% fetal bovine serum albumin (5,000 per well) and incubated overnight at 37° C. The next day, test compounds are added at various concentrations (0.003-10 μM) and the plates are incubated at 37° C. for an additional 72 hrs. This incubation time was considered to be optimal for measuring inhibitory effects of the different compounds tested. 50 microliters of 5 mg/mL MTT reagent is added to each well and the plates are incubated at 37° C. for another three (3) hours. At the end of the three (3) hour incubation period, 50 microliters of DMSO is added to each well to dissolve cells and the optical density (OD) of the wells is measured with a microplate reader (Victor^2 1420, Wallac, Finland) at 535 nm. Cell survival (CS) was calculated using the following equation: CS=(OD treated well/mean OD control wells)×100%.
# The CC50 (reported in the following tables), is defined as the drug concentration that results in 50% cell survival (CS), and is derived by calculating the point where the dose-response curve crosses the 50% CS point using GraphPad Prism. The reported CC50 values are supplied as ranges (A=<0.1 μM, B=0.1 μM to 1 μM, C=>1 μM to 10 μM, D=>10 μM).
# XIAP BIR-3 = target: T2, XIAP BIR-3 (Homo sapiens, UniProt P98170); assay: Fluorescence polarization binding to XIAP BIR-3 with labeled peptide AbuRPF-K(5-Fam)-NH2; conditions: 40 nM BIR3, 5 nM labeled peptide, reported as ranges
# T2 construct: 40 nM of the respective IAP BIR3
# T2 sequence (P98170 241-356 limits assumed): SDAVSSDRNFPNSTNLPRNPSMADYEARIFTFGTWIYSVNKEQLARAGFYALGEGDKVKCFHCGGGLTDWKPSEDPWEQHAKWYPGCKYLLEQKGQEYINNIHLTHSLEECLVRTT
# Method: as §1
# T1 sequence (Q13490 253-363 limits assumed): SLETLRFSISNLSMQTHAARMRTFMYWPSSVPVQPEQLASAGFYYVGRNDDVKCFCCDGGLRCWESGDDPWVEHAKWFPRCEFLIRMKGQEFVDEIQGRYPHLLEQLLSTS
pKd (cIAP-1 BIR-3),pKd (XIAP BIR-3),Structure (SMILES),CC50 [1] [nM]
> 7.00,> 7.00,"CN[C@@H](C)C(=O)N[C@H](C(=O)N1CC[C@@H]2[C@H]1[C@@H](OCc1ccc(F)cc1)CN2S(=O)(=O)CC(C)C)C(C)(C)C [Example 38, N-{1-[6-(4-Fluoro-benzyloxy)-4-(2-methyl-propane-1-sulfonyl)-hexahydro-pyrrolo[3,2-b]pyrrole-1-carbonyl]-2,2-dimethyl-propyl}-2-methylamino-propionamide]",< 100
> 7.00,> 7.00,"CN[C@@H](C)C(=O)N[C@H](C(=O)N1CC[C@@H]2[C@H]1[C@@H](OCc1ccc(F)cc1)CN2C(=O)CC(C)C)C(C)(C)C [Example 39, N-{1-[6-(4-Fluoro-benzyloxy)-4-(3-methyl-butyryl)-hexahydro-pyrrolo[3,2-b]pyrrole-1-carbonyl]-2,2-dimethyl-propyl}-2-methylamino-propionamide]",< 100
> 7.00,> 7.00,"CN[C@@H](C)C(=O)N[C@H](C(=O)N1CC[C@@H]2[C@H]1[C@@H](OCc1ccc(F)cc1)CN2C(C)=O)C(C)(C)C [Example 40, N-{1-[4-Acetyl-6-(4-fluoro-benzyloxy)-hexahydro-pyrrolo[3,2-b]pyrrole-1-carbonyl]-2,2-dimethyl-propyl}-2-methylamino-propionamide]",< 100
> 7.00,> 7.00,"CN[C@@H](C)C(=O)N[C@H](C(=O)N1CC[C@@H]2[C@H]1[C@@H](OCc1ccc(F)cc1)CN2C(=O)N(C)C)C(C)(C)C [Example 41, (3S,3aS,6aR)-4-((S)-3,3-dimethyl-2((S)-2-(methylamino)propanamido)butanoyl)-3-(4-fluorobenzyloxy)-N,N-dimethylhexahydropyrrolo[3,2-b]pyrrole-1(2H)-carboxamide]",< 100
> 7.00,> 7.00,"CN[C@@H](C)C(=O)N[C@H](C(=O)N1CC[C@@H]2[C@H]1[C@@H](OCc1ccc(F)cc1)CN2C(=O)C(C)=O)C(C)(C)C [Example 42, N-{1-[6-(4-Fluoro-benzyloxy)-4-(2-oxo-propionyl)-hexahydro-pyrrolo[3,2-b]pyrrole-1-carbonyl]-2,2-dimethyl-propyl}-2-methylamino-propionamide]",< 100
> 7.00,6.00 to 7.00,"CN[C@@H](C)C(=O)N[C@H](C(=O)N1CC[C@@H]2[C@H]1[C@@H](OCc1ccc(F)cc1)CN2C1CCOCC1)C(C)(C)C [Example 43, (S)—N—((S)-1-((3aR,6S,6aS)-6-(4-fluorobenzyloxy)-4-(tetrahydro-2H-pyran-4-yl)hexahydropyrrolo[3,2-b]pyrrol-1(2H)-yl)-3,3-dimethyl-1-oxobutan-2-yl)-2-(methylamino)propanamide]",< 100
> 7.00,6.00 to 7.00,"CN[C@@H](C)C(=O)N[C@H](C(=O)N1CC[C@@H]2[C@H]1[C@@H](OCc1ccc(F)cc1)CN2C1CCCC1)C(C)(C)C [Example 44, (S)—N—((S)-1-((3aR,6S,6aS)-4-cyclopentyl-6-(4-fluorobenzyloxy)hexahydropyrrolo[3,2-b]pyrrol-1(2H)-yl)-3,3-dimethyl-1-oxobutan-2-yl)-2-(methylamino) propanamide]",< 100
> 7.00,6.00 to 7.00,"CN[C@@H](C)C(=O)N[C@H](C(=O)N1CC[C@@H]2[C@H]1[C@@H](OCc1ccc(F)cc1)CN2c1ncccn1)C(C)(C)C [Example 45, (S)—N—((S)-1-((3aR,6S,6aS)-6-(4-fluorobenzyloxy)-4-(pyrimidin-2-yl)hexahydropyrrolo[3,2-b]pyrrol-1(2H)-yl)-3,3-dimethyl-1-oxobutan-2-yl)-2-(methylamino)propanamide]",< 100
> 7.00,6.00 to 7.00,"CNC(C)C(=O)NC(C(=O)N1CCC2C1C(OC(=O)NCc1ccccc1)CN2C(=O)NC(C)C)C(C)(C)C (stereo not drawn) [Example 46, Benzyl-carbamic acid 4-[3,3-dimethyl-2-(2-methylamino-propionylamino)-butyryl]-1-isopropylcarbamoyl-octahydro-pyrrolo[3,2-b]pyrrol-3-yl ester]",< 100
> 7.00,6.00 to 7.00,"CN[C@@H](C)C(=O)N[C@H](C(=O)N1CC[C@@H]2[C@H]1[C@@H](OC(=O)Nc1ccccc1)CN2C(=O)NC(C)C)C(C)(C)C [Example 47, Phenyl-carbamic acid 4-[3,3-dimethyl-2-(2-methylamino-propionylamino)-butyryl]-1-isopropylcarbamoyl-octahydro-pyrrolo[3,2-b]pyrrol-3-yl ester]",< 100
> 7.00,6.00 to 7.00,"CN[C@@H](C)C(=O)N[C@H](C(=O)N1CC[C@@H]2[C@H]1[C@@H](OC(=O)N(c1ccccc1)c1ccccc1)CN2C(=O)NC(C)C)C(C)(C)C [Example 48, Diphenyl-carbamic acid 4-[3,3-dimethyl-2-(2-methylamino-propionylamino)-butyryl]-1-isopropylcarbamoyl-octahydro-pyrrolo[3,2-b]pyrrol-3-yl ester]",100 to 1000
> 7.00,6.00 to 7.00,"CN[C@@H](C)C(=O)N[C@H](C(=O)N1CC[C@@H]2[C@H]1[C@@H](OC(=O)Nc1cccc3ccccc13)CN2C(=O)NC(C)C)C(C)(C)C [Example 49, Naphthalen-1-yl-carbamic acid 4-[3,3-dimethyl-2-(2-methylamino-propionylamino)-butyryl]-1-isopropylcarbamoyl-octahydro-pyrrolo[3,2-b]pyrrol-3-yl ester]",< 100
> 7.00,6.00 to 7.00,"CN[C@@H](C)C(=O)N[C@H](C(=O)N1CC[C@@H]2[C@H]1[C@@H](OC(=O)N(C)c1ccccc1)CN2C(=O)NC(C)C)C(C)(C)C [Example 50, Methyl-phenyl-carbamic acid 4-[3,3-dimethyl-2-(2-methylamino-propionylamino)-butyryl]-1-isopropylcarbamoyl-octahydro-pyrrolo[3,2-b]pyrrol-3-yl ester]",100 to 1000
> 7.00,6.00 to 7.00,"CN[C@@H](C)C(=O)N[C@H](C(=O)N1CC[C@@H]2[C@H]1[C@@H](OC(=O)Nc1ccc3ccccc3c1)CN2C(=O)NC(C)C)C(C)(C)C [Example 51, Naphthalen-2-yl-carbamic acid 4-[3,3-dimethyl-2-(2-methylamino-propionylamino)-butyryl]-1-isopropylcarbamoyl-octahydro-pyrrolo[3,2-b]pyrrol-3-yl ester]",1000 to 10000
> 7.00,5.00 to 6.00,"CCNC(=O)O[C@H]1CN(C(=O)NC(C)C)[C@@H]2CCN(C(=O)[C@@H](NC(=O)[C@H](C)NC)C(C)(C)C)[C@H]12 [Example 52, Ethyl-carbamic acid 4-[3,3-dimethyl-2-(2-methylamino-propionylamino)-butyryl]-1-isopropylcarbamoyl-octahydro-pyrrolo[3,2-b]pyrrol-3-yl ester]",1000 to 10000
> 7.00,6.00 to 7.00,"CCCCNC(=O)O[C@H]1CN(C(=O)NC(C)C)[C@@H]2CCN(C(=O)[C@@H](NC(=O)[C@H](C)NC)C(C)(C)C)[C@H]12 [Example 53, Butyl-carbamic acid 4-[3,3-dimethyl-2-(2-methylamino-propionylamino)-butyryl]-1-isopropylcarbamoyl-octahydro-pyrrolo[3,2-b]pyrrol-3-yl ester]",100 to 1000
> 7.00,5.00 to 6.00,"CN[C@@H](C)C(=O)N[C@H](C(=O)N1CC[C@@H]2[C@H]1[C@@H](OC(=O)NC(C)C)CN2C(=O)NC(C)C)C(C)(C)C [Example 54, Isopropyl-carbamic acid 4-[3,3-dimethyl-2-(2-methylamino-propionylamino)-butyryl]-1-isopropylcarbamoyl-octahydro-pyrrolo[3,2-b]pyrrol-3-yl ester]",1000 to 10000
> 7.00,5.00 to 6.00,"CN[C@@H](C)C(=O)N[C@H](C(=O)N1CC[C@@H]2[C@H]1[C@@H](OC(=O)NC(C)(C)C)CN2C(=O)NC(C)C)C(C)(C)C [Example 55, tert-Butyl-carbamic acid 4-[3,3-dimethyl-2-(2-methylamino-propionylamino)-butyryl]-1-isopropylcarbamoyl-octahydro-pyrrolo[3,2-b]pyrrol-3-yl ester]",100 to 1000
